Key:
Type in all cases: in vivo
[1] = system: pigweed (Amaranthus retroflexus); assay: Test A postemergence pigweed; details: 0 to 100 scale, 0 is no effect, 100 is complete control
Excerpt: (§1) Seeds of plant species selected from barnyardgrass (Echinochloa crus-galli), kochia (Kochia scoparia), ragweed (common ragweed, Ambrosia elatior), ryegrass, Italian (Italian ryegrass, Lolium multiflorum), crabgrass, large (large crabgrass, Digitaria sanguinalis), foxtail, giant (giant foxtail, Setaria faberii), morningglory (Ipomoea spp.), pigweed (Amaranthus retroflexus), velvetleaf (Abutilon theophrasti), wheat (Triticum aestivum), and corn (Zea mays) were planted into a blend of loam soil and sand and treated preemergence with a directed soil spray using test chemicals formulated in a non-phytotoxic solvent mixture which included a surfactant.
(§2) At the same time, plants selected from these crop and weed species and also blackgrass (Alopecurus myosuroides), and galium (catchweed bedstraw, Galium aparine) were planted in pots containing the same blend of loam soil and sand and treated with postemergence applications of test chemicals formulated in the same manner. Plants ranged in height from 2 to 10 cm and were in the one- to two-leaf stage for the postemergence treatment. Treated plants and untreated controls were maintained in a greenhouse for approximately 10 d, after which time all treated plants were compared to untreated controls and visually evaluated for injury. Plant response ratings, summarized in Table A, are based on a 0 to 100 scale where 0 is no effect and 100 is complete control. A dash (-) response means no test result.

[2] = system: barnyardgrass (Echinochloa crus-galli); assay: Test A postemergence barnyardgrass; details: 0 to 100 scale, 0 is no effect, 100 is complete control
Excerpt: as §1, §2

rice (Oryza sativa) = assay: Test B flooded paddy test rice; details: Table B, Flood, scale 0 to 100
Procedure: (§3) Plant species in the flooded paddy test selected from rice (Oryza sativa), sedge, umbrella (small-flower umbrella sedge, Cyperus difformis), ducksalad (Heteranthera limosa), and barnyardgrass (Echinochloa crus-galli) were grown to the 2-leaf stage for testing. At the time of treatment, test pots were flooded to 3 cm above the soil surface, treated by application of test compounds directly to the paddy water, and then maintained at that water depth for the duration of the test. Treated plants and controls were maintained in a greenhouse for 13 to 15 d, after which time all species were compared to controls and visually evaluated. […] A dash (-) response means no test result.

kochia (Kochia scoparia) [3] = assay: Test A preemergence kochia; details: 0 to 100 scale, 0 no effect, 100 complete control
Excerpt: as §1, §2

[4] = system: pigweed (Amaranthus retroflexus); assay: Test A preemergence pigweed; details: 0 to 100 scale, 0 no effect, 100 complete control
Excerpt: as §1, §2

[5] = system: sedge, umbrella (small-flower umbrella sedge, Cyperus difformis); assay: Test B flooded paddy test sedge, umbrella; details: Table B, Flood, scale 0 to 100
Procedure: as §3

corn (Zea mays) = assay: Test A postemergence corn; details: 0 to 100 scale, 0 is no effect, 100 is complete control
Excerpt: as §1, §2

[6] = system: ragweed (common ragweed, Ambrosia elatior); assay: Test A postemergence ragweed; details: 0 to 100 scale, 0 is no effect, 100 is complete control
Excerpt: as §1, §2

[7] = system: foxtail, giant (giant foxtail, Setaria faberii); assay: Test A postemergence foxtail, giant; details: 0 to 100 scale, 0 is no effect, 100 is complete control
Excerpt: as §1, §2

[8] = system: ryegrass, Italian (Italian ryegrass, Lolium multiflorum); assay: Test A preemergence ryegrass, Italian; details: 0 to 100 scale, 0 no effect, 100 complete control
Excerpt: as §1, §2

[9] = system: wheat (Triticum aestivum); assay: Test A postemergence wheat; details: 0 to 100 scale, 0 is no effect, 100 is complete control
Excerpt: as §1, §2

[10] = system: ducksalad (Heteranthera limosa); assay: Test B flooded paddy test ducksalad; details: Table B, Flood, scale 0 to 100
Procedure: as §3

[11] = system: barnyardgrass (Echinochloa crus-galli); assay: Test A preemergence barnyardgrass; details: 0 to 100 scale, 0 no effect, 100 complete control
Excerpt: as §1, §2

[12] = system: ryegrass, Italian (Italian ryegrass, Lolium multiflorum); assay: Test A postemergence ryegrass, Italian; details: 0 to 100 scale, 0 is no effect, 100 is complete control
Excerpt: as §1, §2

[13] = system: blackgrass (Alopecurus myosuroides); assay: Test A postemergence blackgrass; details: 0 to 100 scale, 0 is no effect, 100 is complete control
Excerpt: as §1, §2

[14] = system: foxtail, giant (giant foxtail, Setaria faberii); assay: Test A preemergence foxtail, giant; details: 0 to 100 scale, 0 no effect, 100 complete control
Excerpt: as §1, §2

[15] = system: galium (catchweed bedstraw, Galium aparine); assay: Test A postemergence galium; details: 0 to 100 scale, 0 is no effect, 100 is complete control
Excerpt: as §1, §2

[16] = system: barnyardgrass (Echinochloa crus-galli); assay: Test B flooded paddy test barnyardgrass; details: Table B, Flood, scale 0 to 100
Procedure: as §3

[17] = system: ragweed (common ragweed, Ambrosia elatior); assay: Test A preemergence ragweed; details: 0 to 100 scale, 0 no effect, 100 complete control
Excerpt: as §1, §2

kochia (Kochia scoparia) [18] = assay: Test A postemergence kochia; details: 0 to 100 scale, 0 is no effect, 100 is complete control
Excerpt: as §1, §2

## O=C1NCCC(c2cccc(OC(F)(F)F)c2)C1C(=O)Nc1ccccc1C(F)(F)F (racemic) [Compound 38]
[1]; 125 g ai/ha
  Plant response rating, Pigweed: 0
[1]; 500 g ai/ha
  Plant response rating, Pigweed: 0
[2]; 125 g ai/ha
  Plant response rating, Barnyardgrass: 50
[2]; 500 g ai/ha
  Plant response rating, Barnyardgrass: 70
Rice (Oryza sativa); 250 g ai/ha
  Plant response rating: 0
Kochia (Kochia scoparia) [3]; 125 g ai/ha
  Kochia plant response rating: 0
Kochia (Kochia scoparia) [3]; 500 g ai/ha
  Kochia plant response rating: 0
[4]; 125 g ai/ha
  Pigweed plant response rating: 0
[4]; 500 g ai/ha
  Pigweed plant response rating: 0
[5]; 250 g ai/ha
  Plant response rating: 0
Corn (Zea mays); 125 g ai/ha
  Plant response rating, Corn: 0
Corn (Zea mays); 500 g ai/ha
  Plant response rating, Corn: 0
[6]; 125 g ai/ha
  Plant response rating, Ragweed: 0
[6]; 500 g ai/ha
  Plant response rating, Ragweed: 0
[7]; 125 g ai/ha
  Plant response rating, Foxtail, Giant: 0
[7]; 500 g ai/ha
  Plant response rating, Foxtail, Giant: 60
[8]; 125 g ai/ha
  Ryegrass, Italian plant response rating: 0
[8]; 500 g ai/ha
  Ryegrass, Italian plant response rating: 0
[9]; 125 g ai/ha
  Plant response rating, Wheat: 0
[9]; 500 g ai/ha
  Plant response rating, Wheat: 0
[10]; 250 g ai/ha
  Plant response rating: 85
[11]; 125 g ai/ha
  Barnyardgrass plant response rating: 30
[11]; 500 g ai/ha
  Barnyardgrass plant response rating: 80
[12]; 125 g ai/ha
  Plant response rating, Ryegrass, Italian: 0
[12]; 500 g ai/ha
  Plant response rating, Ryegrass, Italian: 0
[13]; 125 g ai/ha
  Plant response rating, Blackgrass: 0
[13]; 500 g ai/ha
  Plant response rating, Blackgrass: 0
[14]; 125 g ai/ha
  Foxtail, Giant plant response rating: 50
[14]; 500 g ai/ha
  Foxtail, Giant plant response rating: 80
[15]; 125 g ai/ha
  Plant response rating, Galium: 0
[15]; 500 g ai/ha
  Plant response rating, Galium: 0
[16]; 250 g ai/ha
  Plant response rating: 35
[17]; 125 g ai/ha
  Ragweed plant response rating: 0
[17]; 500 g ai/ha
  Ragweed plant response rating: 0
Kochia (Kochia scoparia) [18]; 125 g ai/ha
  Plant response rating, Kochia: 0
Kochia (Kochia scoparia) [18]; 500 g ai/ha
  Plant response rating, Kochia: 0

## O=C1NCCC(c2cccc(OC(F)F)c2)C1C(=O)Nc1ccc(F)c(F)c1F (racemic) [Compound 44]
[1]; 125 g ai/ha
  Plant response rating, Pigweed: 0
[1]; 500 g ai/ha
  Plant response rating, Pigweed: 0
[2]; 125 g ai/ha
  Plant response rating, Barnyardgrass: 20
[2]; 500 g ai/ha
  Plant response rating, Barnyardgrass: 80
Rice (Oryza sativa); 500 g ai/ha
  Plant response rating: 0
Kochia (Kochia scoparia) [3]; 125 g ai/ha
  Kochia plant response rating: 0
Kochia (Kochia scoparia) [3]; 500 g ai/ha
  Kochia plant response rating: 0
[4]; 125 g ai/ha
  Pigweed plant response rating: 0
[4]; 500 g ai/ha
  Pigweed plant response rating: 0
[5]; 500 g ai/ha
  Plant response rating: 0
Corn (Zea mays); 125 g ai/ha
  Plant response rating, Corn: 0
Corn (Zea mays); 500 g ai/ha
  Plant response rating, Corn: 0
[6]; 125 g ai/ha
  Plant response rating, Ragweed: 0
[6]; 500 g ai/ha
  Plant response rating, Ragweed: 0
[7]; 125 g ai/ha
  Plant response rating, Foxtail, Giant: 30
[7]; 500 g ai/ha
  Plant response rating, Foxtail, Giant: 80
[8]; 125 g ai/ha
  Ryegrass, Italian plant response rating: 0
[8]; 500 g ai/ha
  Ryegrass, Italian plant response rating: 0
[9]; 125 g ai/ha
  Plant response rating, Wheat: 0
[9]; 500 g ai/ha
  Plant response rating, Wheat: 0
[10]; 500 g ai/ha
  Plant response rating: 85
[11]; 125 g ai/ha
  Barnyardgrass plant response rating: 60
[11]; 500 g ai/ha
  Barnyardgrass plant response rating: 90
[12]; 125 g ai/ha
  Plant response rating, Ryegrass, Italian: 0
[12]; 500 g ai/ha
  Plant response rating, Ryegrass, Italian: 20
[13]; 125 g ai/ha
  Plant response rating, Blackgrass: 0
[13]; 500 g ai/ha
  Plant response rating, Blackgrass: 20
[14]; 125 g ai/ha
  Foxtail, Giant plant response rating: 80
[14]; 500 g ai/ha
  Foxtail, Giant plant response rating: 90
[15]; 125 g ai/ha
  Plant response rating, Galium: 0
[15]; 500 g ai/ha
  Plant response rating, Galium: 20
[16]; 500 g ai/ha
  Plant response rating: 60
[17]; 125 g ai/ha
  Ragweed plant response rating: 0
[17]; 500 g ai/ha
  Ragweed plant response rating: 30
Kochia (Kochia scoparia) [18]; 125 g ai/ha
  Plant response rating, Kochia: 0
Kochia (Kochia scoparia) [18]; 500 g ai/ha
  Plant response rating, Kochia: 0
